# Data published in patent US8372951B2, “Cell penetrating peptides for intracellular delivery” (National Tsing Hua University, priority 2010, dated 2013).
# “Also recorded” adds a separate entry of the source. Residues, ends and D or L forms follow the SMILES beside them. No end group written: not given here. *: point of attachment. FITC = O=C1OC2(c3ccc(O)cc3Oc3cc(O)ccc32)c2ccc(NC(=S)*)cc21
# Columns and labels:
# Assay type in all cases: cell-based
# [1] = test system: Caco-2; test: MTT cell viability assay; conditions: Caco-2, 24 h
# Protocol: (§1) FIG. 7 illustrates in vitro delivery of peptidomimetic drug. (A). Cell viability assay. Beas-2B cells were incubated with 50 μM (KLAKLAK)2-ECP(32-41), ECP(32-41), or (KLAKLAK)2, at 37° C. for 24 h. Effects of (KLAKLAK)2-ECP(32-41) on the cell viability of Beas-2B, A549 and CHO-K1 cells (B), as well as Caco-2 and AGS cells (C). Cell viability in each group was determined by MTT assay and each experiment was performed in triplicate.
# (§2) The cytotoxic effect of peptides on the cell growth were determined by a colorimetric assay using 3-(4,5-dimethylthiazol-2-yl)-2,5-diphenyltetrazolium bromide (MTT) (US Biological, Marblehead, Mass.). Cells were plated in a 96-well plate (1.0×10^4 cells/well) and incubated at 37° C. overnight. Each sample was incubated with the indicated concentration (1-100 μM) of peptide. Twenty-four hours after treatment with the indicated peptide, MTT was added, and cell growth was monitored at A570 to measure the mitochondrial-dependent formation of a colored product.
# [2] = test system: AGS; test: MTT cell viability assay; conditions: 24 h
# Protocol: as §1, §2
# [3] = test system: Beas-2B cells; test: MTT cell viability assay; conditions: for cytotoxicity / cell death: Beas-2B cells, 24 h, MTT
# Protocol: as §1, §2
# [4] = test system: CHO-K1; test: MTT cell viability assay; conditions: CHO-K1, 24 h
# Protocol: as §1, §2
# [5] = test system: A549; test: MTT cell viability assay; conditions: A549, 24 h
# Protocol: as §1, §2
# [6] = test system: Beas-2B cells; test: Flow cytometry of cellular uptake of fluorescence-labeled peptides/proteins; conditions: 37° C., 30 min; for cellular uptake of peptide cargo: 5 μM
# Protocol: FIG. 2 illustrates cellular uptake of ECP(32-41). Beas-2B cells were incubated with 20 μM FITC (control) or FITC-ECP(32-41) at 37° C. for 30 min. After treatment, the cells were washed with 500 μl phosphate buffered saline (PBS) and treated with trypsin at 37° C. for 10 min to remove adherent extracellular peptides. The cells were resuspended in 500 μl PBS and analyzed by flow cytometry. The cellular uptake activity was expressed as mean fluorescence intensity (MFI) using FACScalibur (BD Biosciences, Franklin Lakes, N.J.) flow cytometer (FACS). The data represented the means of triplicate incubations.
# FIG. 5 illustrates in vitro delivery of peptide. Beas-2B cells were incubated with 5 μM FITC (control), FITC-Dp2 or FITC-Dp2-ECP(32-41) at 37° C. for 1 h. After treatment, cells were washed with 500 μl PBS and treated with trypsin at 37° C. for 10 min to remove adherent extracellular peptides. The cells were resuspended in 500 μl PBS and analyzed by flow cytometry. The cellular uptake activity was expressed as mean fluorescence intensity (MFI) using FACScalibur (BD Biosciences, Franklin Lakes, N.J.) flow cytometer (FACS). The data represented the means of triplicate incubations.
# FIG. 6 illustrates in vitro delivery of protein. […] The cells were resuspended in 500 μl PBS and analyzed by flow cytometry. The cellular uptake activity was expressed as mean fluorescence intensity (MFI) using FACScalibur (BD Biosciences, Franklin Lakes, N.J.) flow cytometer (FACS). […]
# Cells (2.0×10^5 cells/well) were plated into a 6-well microplate and cultured for 24 h in RPMI 1640 medium containing 10% heat-inactivated bovine serum (Beas-2B). After complete adhesion, the cells were incubated at 37° C. with fluorescence-labeled peptides dissolved in fresh serum-containing medium prior to washing with PBS. […] The washing cycle was repeated again and the cells were suspended in PBS and subjected to fluorescence analysis on a FACScalibur (BD Biosciences, Franklin Lakes, N.J.) flow cytometer (FACS) using 488-nm laser excitation and a 515-545-nm emission filter. […]
# [7] = test system: Beas-2B cells; test: Confocal microscopy of cellular uptake and intracellular distribution; conditions: for entry into Beas-2B cells (minimal length requirement): 5 μM FITC-labeled peptide, 30 min
# Protocol: FIG. 3 illustrates intracellular distribution of cell-penetrating ECP(32-41). Beas-2B cells were incubated with 5 μM FITC-ECP(32-41) at 37° C. for 5 or 60 min. After wash with 1 ml PBS buffer twice, the cellular uptake was analyzed by confocal laser scanning microscopy. Magnification ford: 63×. Scale bar: 50
# FIG. 4 illustrates minimal length requirement of cell penetration peptide. Beas-2B cells were incubated with 5 μM FITC-ECP(32-41), FITC-ECP(32-41)D1, and FITC-ECP(32-41)D2 separately at 37° C. for 30 min. After wash with 1 ml PBS buffer twice, the cellular uptake was analyzed by confocal laser scanning microscopy. Magnification fold: 40×. Scale bar: 50
# Cells (1.0×10^4 cells/well) were plated on 18-mm glass-bottomed dishes (Marienfeld, Germany) and cultured in medium containing 10% heat-inactivated fetal bovine serum for 24 h. After complete adhesion, the cell culture medium was removed, and then incubated at 37° C. in fresh medium containing the fluorescence-labeled peptides. The cells were washed with PBS, then fixed by 2% (w/v) paraformaldehyde (PFA) in PBS for 15 min, and 50 mM ammonium chloride in PBS was added to quench with fluoresce from PFA. Distribution of the fluorescence-labeled peptides in the cells was analyzed using a confocal scanning laser microscope (Zeiss).
compound,measurement,setting,value
CC(C)C[C@H](NC(=O)[C@H](CCCCN)NC(=O)[C@H](C)NC(=O)[C@H](CC(C)C)NC(=O)[C@H](CCCCN)NC(=S)Nc1ccc2c(c1)C(=O)OC21c2ccc(O)cc2Oc2cc(O)ccc21)C(=O)N[C@@H](C)C(=O)N[C@@H](CCCCN)C(=O)N[C@@H](CCCCN)C(=O)N[C@@H](CC(C)C)C(=O)N[C@@H](C)C(=O)N[C@@H](CCCCN)C(=O)N[C@@H](CC(C)C)C(=O)N[C@@H](C)C(=O)N[C@@H](CCCCN)C(=O)N[C@@H](CC(N)=O)C(=O)N[C@@H](Cc1ccc(O)cc1)C(=O)N[C@@H](CCCNC(=N)N)C(=O)N[C@@H](Cc1c[nH]c2ccccc12)C(=O)N[C@@H](CCCNC(=N)N)C(=O)N[C@@H](CS)C(=O)N[C@@H](CCCCN)C(=O)N[C@@H](CC(N)=O)C(=O)N[C@@H](CCC(N)=O)C(=O)N[C@@H](CC(N)=O)C(=O)O [(KLAKLAK)2-ECP(32-41)] ({FITC}-KLAKLAKKLAKLAKNYRWRCKNQN-OH; N-terminus and C-terminus assumed),cytotoxicity (cell viability),[1],strong cytotoxicity
same,cytotoxicity (cell viability),[2],strong cytotoxicity
same,cytotoxicity / cell death,[3]; listed as FITC-(KLAKLAK)2-ECP(32-41),induce markedly cell death; also recorded: strong cytotoxicity
same,cytotoxicity (cell viability),[4],strong cytotoxicity
same,cytotoxicity (cell viability),[5],strong cytotoxicity
"(KLAKLAK)2: previously reported proapoptotic domain, peptidomimetic, SEQ ID NO: 6 (KLAKLAKKLAKLAK; (KLAKLAK)2) [reference compound]",cell-penetrating activity,[3]; stated with the Beas-2B viability results (FIG. 7A),lacking
"Dp2-ECP(32-41): recombinant Dp2 peptide fused with ECP(32-41), SEQ ID NO: 5 (IIHRGKPFQLEAVNYRWRCKNQN; Dp2-ECP(32-41))",cellular uptake of peptide cargo,[6],able to enter the cells
"ECP(32-41) D1: C-terminally truncated ECP(32-41) peptide, SEQ ID NO: 2 (NYRWRCKNQ; ECP(32-41)D1)",entry into Beas-2B cells (minimal length requirement),[7]; 37° C.,entered Beas-2B cells
"ECP(32-41): 10 amino acid cell penetrating peptide from eosinophil cationic protein residues 32-41, SEQ ID NO: 1 (NYRWRCKNQN; ECP(32-41))",entry into Beas-2B cells (minimal length requirement),[7]; 37° C.,entered Beas-2B cells
same,intracellular localization,"[7]; 5 μM, 37° C.",both cytoplasm and nucleus
same,cytotoxicity / cell death,[3],lacking
"ECP(32-41)D2: C-terminally truncated ECP(32-41) peptide, SEQ ID NO: 3 (NYRWRCKN; ECP(32-41)D2)",entry into Beas-2B cells (minimal length requirement),[7]; 37° C.,could not
"FITC-Dp2: Dp2 peptide (SEQ ID NO: 4), the group 2 allergen of Dermatophagoides pteronyssinus, FITC-labeled (IIHRGKPFQLEAV; not fully specified (N-terminus); also: FITC label) [reference compound]",cellular uptake of peptide cargo,[6],only Dp2-ECP(32-41) was able to enter the cells
"FITC-ECP(32-41): fluorochrome-tagged peptide, FITC-labeled ECP(32-41) (SEQ ID NO: 1) ({FITC}-NYRWRCKNQN)",cellular uptake (fluorescent signal shift),"[6]; 20 μM, trypsinized",significant uptake
same,fluorescence signal inside the cells,"[7]; 5 μM, 5 min",a clear fluorescence signal inside the cells
same,fluorescence signal inside the cells,"[7]; 5 μM, up to 60 min",Stronger signal
